Entries after “also recorded” stand apart in the source; their conditions may differ. Read-outs that look alike come from different tables or passages of the source.
What was measured:
[1] = test system: NVHL rats; assay: Prepulse inhibition of the acoustic startle response (PPI) in NVHL rats; type: in vivo, Sprague-Dawley rats; details: adult NVHL rats
Protocol: To assess whether juvenile oxidative stress leads to behavioral deficits, a behavioral paradigm was used for testing in both animal models and schizophrenia patients. Prepulse inhibition of the acoustic startle response (PPI) is a measure of sensorimotor gating that is reduced in patients (Geyer and Braff, 1987) and NVHL rats (Lipska et al., 1995). PPI was tested in adult sham (n=11), NAC-treated sham (n=12), NVHL (n=9), and NAC-treated NVHL rats (n=17). In addition to loss of PVI maturation and electrophysiological anomalies, developmental oxidative stress in juvenile NVHL rats can cause schizophrenia-relevant adult behavioral deficits.
The beneficial effect of NAC treatment includes a large postnatal treatment that starts prior to the lesion and stops once rats become young adults. For full translational value one determines whether NAC is efficacious when started at an age that corresponds to the time when prodromal stages can be identified in humans. In another set of rats, NAC was administered in the drinking water starting at P35, an age that in rats is equivalent to early adolescence. For PPI deficits was tested in adult SHAM (n=15), untreated NVHL (n=12), and NAC-treated NVHL rats (n=14).
Ebselen is a glutathione peroxidase (GPx) mimic (Muller et al., 1984) that induces GPx expression (Kil et al., 2007) and enhances GSH levels in neurons, replenishing GSH depleted by neurotoxic mechanisms (Pawlas and Malecki, 2007). PPI was tested in adult vehicle-treated SHAM (n=10), Ebselen-treated SHAM (n=7), vehicle-treated NVHL (n=8), and Ebselen-treated NVHL rats (n=9), and Ebselen treatment during adolescence reversed PPI deficits in NVHL rats (as shown in FIG. 15D).
In another group of rats, the effects of the NADPH oxidase inhibitor Apocynin was assessed while delivering through juvenile and adolescent stages. PPI was tested in adult vehicle-treated SHAM (n=10), apocynin-treated SHAM (n=11), vehicle treated NHVL (n=7), and apocynin-treated NVHL (n=5). As illustrated in FIG. 15C a reversal of PPI deficits was observed.
Antioxidant pretreatment regimen: NAC (BioAdvantexPharma, Mississauga, Ontario, Canada) was administered in the drinking water at 900 mg/l. NAC treatment started at P5 or at P35, and previous work in mice has shown that NAC consumed by the dam is transmitted to the pups through her milk (das Neves Duarte et al., 2012). NAC treatment ended at P50. Fresh solutions were prepared every 2-3 days. Ebselen (Sound Pharmaceuticals Inc., Seattle, WA) was administered i.p. 5 days a week starting at P35 until the day of PPI testing (P60). Stock ebselen solution (20 mg/ml DMSO, frozen aliquots) was diluted 1:5 in sterile water and administered at a dose of 10 mg/kg. Control animals received an equivalent concentration of DMSO diluted 1:5 in water. Apocynin (Sigma-Aldrich, St. Louis, MO) was administered in the drinking water at a target dose of 100 mg/kg (Nwokocha et al., 2013). Prior to weaning at P21, drinking water contained a dose of 2 g apocynin per 0.5 1 of water, to ensure delivery through the dam's milk. Apocynin concentration was lowered after weaning to 750 mg/1 to best approximate the target dose. Treatment lasted from P5 to P50 with fresh solutions prepared every other day.
Prepulse inhibition: Starting at P60, both male and female rats were tested for PPI, as described previously (Feleder et al., 2010). As PPI deficits in NVHL rats are most evident when rats are challenged with apomorphine (Lipska et al., 1995), we injected apomorphine (0.1 mg/kg, i.p.) immediately prior to the PPI test session. Rats were placed in a sound- attenuated startle chamber (San Diego Instruments, San Diego, CA) with a 70 dB background white noise. After a 5 min adaptation period, the PPI test was initiated with pseudorandom trials every 15 to 25 seconds. Either pulse (120 dB), prepulse (75 dB, 80 dB, or 85 dB), no pulse or prepulse +pulse were delivered. […]

[2] = Solubility of ebselen in aqueous solutions; type: physicochemical; details: 25° Celsius
Protocol: Ebselen is the only active ingredient administered in a formulation. […] Ebselen acts as a catalyst and is not consumed during detoxification reactions (Muller et. al, 1988). An embodiment of an ebselen formulation is >99% pure as confirmed by HPLC. The synthesis of this formulation is provided by Rhodia Pharma Solutions and includes capsules that are hermetically sealed in blister packs. Each capsule contains 200 mg the ebselen formulation or SPI-1000 (placebo).

[3] = Ph-1 placebo-controlled, randomized, single ascending dose study: pharmacokinetics; type: in vivo; details: humans, single dose 200 mg to 1600 mg
Protocol: (§1) Ebselen has excellent oral availability (Fisher et al., 1988). Brain level was about 20% of the plasma level (Imai, et al., 2001, Ullrich, et al., 1996). […] A Ph-1 study was conducted in 32 humans in a placebo-controlled, randomized, single ascending dose design. Ebselen ranged from 200 mg to 1600 mg in the formulation. (1) Pharmacokinetics: The PK parameters of ebselen and its three metabolites were published (Lynch, et al., 2009). […] The tabulated side effects were published in Lynch, et al., 2009.

[4] = test system: healthy males and females; assay: Ph-1 placebo-controlled, randomized, single ascending dose study: safety; type: in vivo, humans
Protocol: as §1

[5] = Repeat dosing 28-day study, monkey; details: cynomolgus monkey, in vivo, Cynomolgus monkeys, read-out: no-observable-effect-level (NOAEL)
Protocol: (§2) Seven acute and repeated dose toxicology studies were conducted in Sprague-Dawley rats, Sinclair miniature swine, and Cynomolgus monkey, and three genotoxicology studies.

[6] = Repeat dosing 28-day study, mini-pig; set-up: species or system Sinclair miniature swine; details: Sinclair, minipig, in vivo, read-out: no-observable-effect-level (NOAEL)
Protocol: as §2

[7] = test system: rats; assay: Repeat dosing 28-day study, rats; type: in vivo, Sprague-Dawley rats
Protocol: as §2

[8] = test system: rats; assay: Chronic toxicity studies 26 and 52 weeks, rats; type: in vivo
Protocol: as §2

[9] = test system: mini-pigs; assay: Chronic toxicity studies 26 and 52 weeks, mini-pigs; type: in vivo
Protocol: as §2

[10] = in vivo; cited from earlier work
[11] = in vivo; cited from earlier work; remark: listed apart in the source
[12] = test system: neurons; details: cited from earlier work
[13] = test system: N-methyl-D-asparatate receptors redox modulatory site; details: cited from earlier work
[14] = 32 humans, single dose 200 mg to 1600 mg

COc1cc(C(C)=O)ccc1O [Apocynin]
effect on PPI deficit ([1]; drinking water, target dose 100 mg/kg, P5 to P50, 100 mg/kg): prevented; also recorded: reversal
effect on PPI deficit ([1]; drinking water, target dose 100 mg/kg, P5 to P50, listed as apocynin, 100 mg/kg): significant lesion by treatment interaction

O=c1c2ccccc2[se]n1-c1ccccc1 [Ebselen, 2-Phenyl-1,2-benzisoselenazol-3(2H)-one]
solubility in aqueous solutions [2]: slightly soluble
Cmax ([3]; both sexes, human, in vivo, oral, range of means): 30.3 to 83.4 ng/mL
AUC(0-t) ([3]; both sexes, human, in vivo, oral, range of means, read-out: mean AUC0-t): 117 to 881 ng·h/mL
half-life ([3]; both sexes, human, in vivo, oral, range of means, read-out: mean t1/2): 6.4 to 16.7 h
Tmax ([3]; both sexes, human, in vivo, oral, range of medians, read-out: median Tmax): 1.5 to 2.3 h
predominate metabolite [3]: 2-glucuronyl selenobenzanilide
serious adverse events or discontinuation due to an AE [4, 14]: no serious adverse events
severity of AEs [4, 14]: mild or moderate
trends in clinical laboratory and ECG findings [4, 14]: No treatment- or dose-related trends
safety and tolerability ([4]; capsules, single oral dose up to 1600 mg): safe and well tolerated
NOAEL at 28 days [5]: 2000 mg/kg
NOAEL at 28 days [6]: > 2000 mg/kg
no-observable-effect-level (NOAEL) [7]: not identified
non-toxic effect level [8]: 31.6 mg/kg
non-toxic effect level [9]: 178 mg/kg
effect on PPI deficit ([1]; 10 mg/kg i.p. 5 days a week from P35 until PPI testing, 10 mg/kg): reversed; also recorded: significant lesion status by treatment interaction
effect on PPI deficit ([1]; 10 mg/kg i.p. 5 days a week from P35 until PPI testing, listed as ebselen, 10 mg/kg): prevented
oral availability [10]: excellent
brain level as share of the plasma level [11]: about 20%
GSH levels in neurons (basal and stressed conditions) [12]: increased
glutamate-induced GSH depletion ([12]; combined with glutamate): neutralized; also recorded: Neuroprotective effect
GSH levels in neurons (basal and stressed conditions) ([12]; listed as ebselen): dose-dependently increases; also recorded: dose-dependent rise
effect on NMDA receptor redox modulatory site [13]: modulates
neuron viability [13]: increases

Source: patent US20240050409A1, “Methods and Compositions for Treating Psychotic Disorders” (SOUND PHARMACEUTICALS INCORPORATED, priority 2014, published 2024)
